Here are results for 26 compounds from ChEMBL document CHEMBL3102850, “Microwave assisted synthesis of naphthopyrans catalysed by silica supported fluoroboric acid as a new class of non purine xanthine oxidase inhibitors” (Bioorg Med Chem Lett, 2014).

Usually inhibition stands for the drop in the measured response relative to a control, in per cent. Usually IC50 stands for the concentration that gives 50% inhibition.

The target of experiment [1] is T1, Xanthine dehydrogenase/oxidase (Bos taurus, UniProt P80457). The experiment in a line: Inhibition of bovine milk xanthine oxidase using xanthine as substrate assessed as decrease in uric acid formation at 50 uM preincubated for 5 mins. The note with it: cattle.
T1 sequence (P80457 whole entry): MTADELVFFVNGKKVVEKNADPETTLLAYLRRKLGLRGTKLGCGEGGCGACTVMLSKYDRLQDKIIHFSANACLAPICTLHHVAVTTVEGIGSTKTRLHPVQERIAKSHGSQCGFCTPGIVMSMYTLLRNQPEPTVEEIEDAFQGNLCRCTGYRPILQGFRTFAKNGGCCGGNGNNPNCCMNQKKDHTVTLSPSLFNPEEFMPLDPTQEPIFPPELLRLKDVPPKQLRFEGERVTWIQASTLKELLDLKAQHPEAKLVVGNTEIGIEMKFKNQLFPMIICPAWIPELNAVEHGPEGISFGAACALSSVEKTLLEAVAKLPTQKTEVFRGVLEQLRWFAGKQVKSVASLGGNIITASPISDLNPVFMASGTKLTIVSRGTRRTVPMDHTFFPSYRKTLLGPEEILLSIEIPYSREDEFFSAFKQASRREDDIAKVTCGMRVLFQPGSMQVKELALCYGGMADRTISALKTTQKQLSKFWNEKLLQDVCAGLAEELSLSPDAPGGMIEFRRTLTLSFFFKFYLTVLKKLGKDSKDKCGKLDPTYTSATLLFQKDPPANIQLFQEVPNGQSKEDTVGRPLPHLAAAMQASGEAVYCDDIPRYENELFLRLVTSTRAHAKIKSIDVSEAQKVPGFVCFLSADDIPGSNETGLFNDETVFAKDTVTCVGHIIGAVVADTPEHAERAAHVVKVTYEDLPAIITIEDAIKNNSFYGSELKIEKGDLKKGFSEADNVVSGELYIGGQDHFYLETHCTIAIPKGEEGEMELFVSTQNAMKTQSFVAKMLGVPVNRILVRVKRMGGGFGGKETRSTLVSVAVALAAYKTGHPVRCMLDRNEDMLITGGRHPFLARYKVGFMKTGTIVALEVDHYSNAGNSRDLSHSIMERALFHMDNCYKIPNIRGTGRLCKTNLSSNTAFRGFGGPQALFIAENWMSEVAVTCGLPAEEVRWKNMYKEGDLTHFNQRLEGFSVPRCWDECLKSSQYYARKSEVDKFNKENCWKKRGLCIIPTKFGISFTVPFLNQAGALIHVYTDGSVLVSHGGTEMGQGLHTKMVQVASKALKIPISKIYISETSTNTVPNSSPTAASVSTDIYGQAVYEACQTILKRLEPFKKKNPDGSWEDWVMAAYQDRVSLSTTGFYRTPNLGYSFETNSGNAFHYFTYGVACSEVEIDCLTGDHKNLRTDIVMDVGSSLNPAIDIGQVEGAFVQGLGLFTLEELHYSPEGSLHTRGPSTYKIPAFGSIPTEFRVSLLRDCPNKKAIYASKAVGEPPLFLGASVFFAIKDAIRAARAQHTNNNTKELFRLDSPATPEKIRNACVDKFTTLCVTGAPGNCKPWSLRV
The target in experiment [2] is T1, Xanthine dehydrogenase/oxidase. The experiment in a line: Inhibition of bovine milk xanthine oxidase using xanthine as substrate assessed as decrease in uric acid formation preincubated for 5 mins.

Take `COC(=O)C1=C(C)Oc2ccc3ccccc3c2C1c1ccc(O)c(OC)c1` (stereo unspecified): in experiment [1], the inhibition at 50 µM amounted to 67.5%.

Turning to `CCOC(=O)C1=C(C)Oc2ccc3ccccc3c2C1/C=C/c1ccccc1` (stereo unspecified), the inhibition at 50 µM in experiment [1] was 11.3%.

Regarding `COC(=O)C1=C(C)Oc2ccc3ccccc3c2C1c1ccc(OC)cc1` (stereo unspecified), the IC50 in experiment [2] worked out at 36.5 µM. In addition, the inhibition at 50 µM in experiment [1] worked out at 68.7%.

Consider `COC(=O)C1=C(C)Oc2ccc3ccccc3c2C1c1ccc(Cl)cc1` (stereo unspecified), for which the inhibition at 50 µM in experiment [1] worked out at 23.9%.

On to `COC(=O)C1=C(C)Oc2ccc3ccccc3c2C1c1ccc([N+](=O)[O-])cc1` (stereo unspecified), for which the inhibition at 50 µM in experiment [1] turned out to be 25%.

As for `COC(=O)C1=C(C)Oc2ccc3ccccc3c2C1c1cccc(Oc2ccccc2)c1` (stereo unspecified), the inhibition at 50 µM in experiment [1] turned out to be 59.6%.

Take `CCCCCC1C(C(=O)OC)=C(C)Oc2ccc3ccccc3c21` (stereo unspecified): in experiment [1], the inhibition at 50 µM is 58.9%.

With `COC(=O)C1=C(C)Oc2ccc3ccccc3c2C1c1ccc(O)cc1` (stereo unspecified), the concentration for half-maximal inhibition (IC50) in experiment [2] turned out to be 24 µM. The inhibition at 50 µM in experiment [1] is 72.4%.

Consider `COC(=O)C1=C(C)Oc2ccc3ccccc3c2C1c1ccc(OC)c(O)c1` (stereo unspecified), for which, in experiment [1], the inhibition at 50 µM came out at 69.3%.

Turning to `COC(=O)C1=C(C)Oc2ccc3ccccc3c2C1c1ccccc1OC` (stereo unspecified), in experiment [1], the inhibition at 50 µM is 58.8%.

In the case of `COC(=O)C1=C(C)Oc2ccc3ccccc3c2C1c1ccc(OC)c(OC)c1` (stereo unspecified), the IC50 in experiment [2] turned out to be 17 µM. Besides, the inhibition at 50 µM in experiment [1] is 78.2%.

Turning to `COC(=O)C1=C(C)Oc2ccc3ccccc3c2C1c1cc(OC)c(OC)c(OC)c1` (stereo unspecified), the inhibition at 50 µM in experiment [1] was 50%.

Turning to `COC(=O)C1=C(C)Oc2ccc3ccccc3c2C1c1cccs1` (stereo unspecified), the IC50 in experiment [2] is 4 µM. In experiment [1], the inhibition at 50 µM amounted to 96.6%.

For `COC(=O)C1=C(C)Oc2ccc3ccccc3c2C1c1ccco1` (stereo unspecified), the IC50 in experiment [2] was determined as 10 µM. In addition, in experiment [1], the inhibition at 50 µM was 92.5%.

In the case of `CCOC(=O)C1=C(C)Oc2ccc3ccccc3c2C1c1ccc(OC)c(O)c1` (stereo unspecified), the inhibition at 50 µM in experiment [1] worked out at 64.7%.

Take `CCOC(=O)C1=C(C)Oc2ccc3ccccc3c2C1c1ccc(OC)c(OC)c1` (stereo unspecified): in experiment [1], the inhibition at 50 µM is 62.3%.

Regarding `CCOC(=O)C1=C(C)Oc2ccc3ccccc3c2C1c1cccs1` (stereo unspecified), in experiment [2], the IC50 turned out to be 11.4 µM. Also, in experiment [1], the inhibition at 50 µM was 89%.

Turning to `CCOC(=O)C1=C(C)Oc2ccc3ccccc3c2C1c1ccco1` (stereo unspecified), the IC50 in experiment [2] turned out to be 13.2 µM. In addition, in experiment [1], the inhibition at 50 µM was found to be 88.6%.

As to `COC(=O)C1=C(C)Oc2ccc3ccccc3c2C1c1sccc1C` (stereo unspecified), in experiment [2], the IC50 turned out to be 7.31 µM. The inhibition at 50 µM in experiment [1] was determined as 93.3%.

With `COC(=O)C1=C(C)Oc2ccc3ccccc3c2C1c1ccc[nH]1` (stereo unspecified), in experiment [2], the IC50 came out at 6.23 µM. In addition, the inhibition at 50 µM in experiment [1] was determined as 94.5%.

As for `COC(=O)C1=C(C)Oc2ccc3ccccc3c2C1`, the inhibition at 50 µM in experiment [1] was 32%.

On to `CCOC(=O)C1=C(C)Oc2ccc3ccccc3c2C1c1ccccc1` (stereo unspecified), for which the IC50 in experiment [2] was determined as 44.4 µM. Besides, in experiment [1], the inhibition at 50 µM worked out at 65.2%.

As for `CCOC(=O)C1=C(C)Oc2ccc3ccccc3c2C1c1ccc(OC)cc1` (stereo unspecified), the inhibition at 50 µM in experiment [1] was 56.5%.

In the case of `CCOC(=O)C1=C(C)Oc2ccc3ccccc3c2C1c1ccc(Cl)cc1` (stereo unspecified), the inhibition at 50 µM in experiment [1] worked out at 20.9%.

Regarding `CCOC(=O)C1=C(C)Oc2ccc3ccccc3c2C1c1ccc([N+](=O)[O-])cc1` (stereo unspecified), the inhibition at 50 µM in experiment [1] is 21.4%.

For the compound `CCOC(=O)C1=C(C)Oc2ccc3ccccc3c2C1c1cccc(Oc2ccccc2)c1` (stereo unspecified), the inhibition at 50 µM in experiment [1] amounted to 50.5%.
